Measurements as given in publication PMC3446250 (2012).

Target: T1, GLIC (Gloeobacter violaceus, UniProt Q7NDN8, N194C)
T1 sequence (Q7NDN8 44-359 N194C): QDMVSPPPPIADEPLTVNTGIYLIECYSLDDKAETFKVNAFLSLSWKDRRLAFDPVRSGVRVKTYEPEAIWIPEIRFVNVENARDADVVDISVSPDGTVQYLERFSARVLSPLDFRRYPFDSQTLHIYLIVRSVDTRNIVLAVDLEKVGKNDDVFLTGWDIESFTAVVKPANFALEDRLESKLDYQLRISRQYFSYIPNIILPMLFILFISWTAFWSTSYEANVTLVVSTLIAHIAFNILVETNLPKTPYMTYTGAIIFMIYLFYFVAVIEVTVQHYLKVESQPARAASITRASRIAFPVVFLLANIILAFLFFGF
Assay: two-electrode voltage clamp in Xenopus oocytes at EC20
Type: cell-based

## CNC1(c2ccccc2Cl)CCCCC1=O (stereo not shown) [ketamine]
  IC50: 110 µM
